Where two headings read alike, the source gives them in different places.
Key:
5-lipoxygenase = biological target: T1, 5-lipoxygenase (Homo sapiens, UniProt P09917); test: 5-Lipoxygenase Assay in human polymorphonuclear (PMN) leukocytes, 5-HETE production; assay type: cell-based
T1 construct: Human polymorphonuclear (PMN) leukocytes (neutrophils) are obtained from normal healthy volunteers; endogenous in cells; host or cells: human polymorphonuclear leukocytes (neutrophils) from blood of healthy volunteers
T1 sequence (P09917 1-674): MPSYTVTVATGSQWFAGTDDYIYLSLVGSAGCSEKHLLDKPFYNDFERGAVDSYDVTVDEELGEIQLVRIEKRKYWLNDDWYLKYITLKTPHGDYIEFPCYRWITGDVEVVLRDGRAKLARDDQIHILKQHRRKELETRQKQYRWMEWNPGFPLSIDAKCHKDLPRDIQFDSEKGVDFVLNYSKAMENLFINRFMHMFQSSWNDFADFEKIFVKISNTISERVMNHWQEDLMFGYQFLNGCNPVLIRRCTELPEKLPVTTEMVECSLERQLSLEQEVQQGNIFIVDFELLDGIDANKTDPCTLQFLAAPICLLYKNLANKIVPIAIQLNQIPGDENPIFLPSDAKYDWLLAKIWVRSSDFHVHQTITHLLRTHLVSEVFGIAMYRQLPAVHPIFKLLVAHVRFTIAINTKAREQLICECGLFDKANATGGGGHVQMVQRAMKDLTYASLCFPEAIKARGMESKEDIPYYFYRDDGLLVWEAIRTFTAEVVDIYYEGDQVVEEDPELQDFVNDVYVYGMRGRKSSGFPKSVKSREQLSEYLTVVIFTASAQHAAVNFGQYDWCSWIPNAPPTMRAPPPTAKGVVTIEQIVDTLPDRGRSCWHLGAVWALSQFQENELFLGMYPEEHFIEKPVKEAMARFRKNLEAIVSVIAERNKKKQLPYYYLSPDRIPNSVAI
Procedure: Human polymorphonuclear (PMN) leukocytes (neutrophils) are obtained from normal healthy volunteers by venipuncture and collected with heparin anticoagulant. Neutrophils are isolated by Dextran/Ficol sedimentation as described (Billah et al, J. Biol. Chem. 260, 6899-6906 (1985)). In brief, 30 ml of blood is mixed with 5 ml of dextran (Sigma) solution and kept at 37° C. for 30 min. The upper white cellrich layer is removed and 10 ml is layered on 9 ml of Ficol-Paque solution (Pharmacia) and centrifuged at 280×g for 10 min. at 5° C. The supernatant is removed and the neutrophil pellet is resuspended in HEPES buffer containing 25 mM N-2-hydroxyethylpiperazine-N^1 -2 ethanesulfonic acid(HEPES), 125 mM NaCl, 2.5 mM KCL, 0.7 mM MgCl2, 0.5 mM and 10 mM glucose at pH 7.4. The red cells in the suspension are lysed by hypotonic shock. The neutrophils are washed by centrifugation in HEPES buffer two times and finally resuspended at a concentration of 20×10^6 cells/ml in the presence of 1 mM CaCl2.
Neutrophils (0.2 ml of suspension) are preincubated with dimethylsulfoxide (DMSO) vehicle with or without test compound (1 ul) for 4 minutes then incubated for 5 minutes with ^14 C-arachidonic acid (Amersham, 59 Ci/mole) at a 9 uM final concentration, and the calcium ionophore A23187 (Calbiochem) at a 1 uM final concentration. These stimulants are added in 10 ul of water:ethanol (9:1). The reaction is stopped by addition of methanol (0.4 ml), and cellular debris is removed by centrifugation. Aliquots (100 ul) of the incubations are run on a Waters two pump high performance liquid chromatography (HPLC) system fitted with a DuPont Zorbax ODS, 5 u, 4×80 […] Reliance Cartridge column and C18 "Guard Pak". The column is initially eluted at 2 ml/min with 80 percent of the mixture water:methanol:acetic acid (46:54:0.08) containing 1 mM EDTA adjusted to pH 6.0 with ammonium hydroxide (Pump A) and 20% methanol (Pump B). At 10 minutes, a linear gradient is established. to reach 100 percent methanol (Pump B) at 27 minutes. Between 27 and 28 minutes, methanol is exchanged for the initial eluting solvent and by 35 minutes the column is reequilibrated for the next sample. The effluent is analyzed by a continuous flow radioactivity monitor (model ROMONA-D) interfaced with a Hewlett Packard Lab Automation System for quantitation of radioactive products. This includes the major 5-lipoxygenase product, 5-hydroxyeicosatetraenoic acid (5-HETE) which elutes at 20 minutes. The results with and without test compound are used to calculate percent inhibition of 5-HETE production.

cyclooxygenase = biological target: T2, cyclooxygenase (Homo sapiens, UniProt P23219); test: Cyclooxygenase Assay with Human Platelets, HHT production; assay type: cell-based; conditions: 15 μM
T2 construct: Cyclooxygenase Assay with Human Platelets; endogenous in cells; host or cells: human blood platelets from healthy volunteers
T2 sequence (P23219 24-599): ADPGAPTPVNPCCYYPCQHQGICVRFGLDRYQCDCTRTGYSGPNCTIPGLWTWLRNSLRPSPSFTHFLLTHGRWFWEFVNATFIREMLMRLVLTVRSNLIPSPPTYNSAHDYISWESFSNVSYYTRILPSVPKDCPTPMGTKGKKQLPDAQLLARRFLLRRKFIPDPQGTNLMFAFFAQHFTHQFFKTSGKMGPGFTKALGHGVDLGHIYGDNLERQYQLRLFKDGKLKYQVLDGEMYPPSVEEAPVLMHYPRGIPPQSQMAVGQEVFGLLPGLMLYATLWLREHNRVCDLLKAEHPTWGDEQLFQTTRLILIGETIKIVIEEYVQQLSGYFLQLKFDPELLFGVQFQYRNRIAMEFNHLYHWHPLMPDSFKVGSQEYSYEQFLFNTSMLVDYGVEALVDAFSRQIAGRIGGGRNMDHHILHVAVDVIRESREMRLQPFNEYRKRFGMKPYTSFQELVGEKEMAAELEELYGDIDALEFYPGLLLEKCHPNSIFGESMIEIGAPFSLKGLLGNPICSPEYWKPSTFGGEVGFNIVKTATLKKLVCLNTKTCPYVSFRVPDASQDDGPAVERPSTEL
Procedure: Cyclooxygenase Assay with Human Platelets
Blood is collected in acid-citrate-dextrose anticoagulant by venipuncture from normal healthy volunteers who said that they were not on any medication for the previous two weeks. Platelets are isolated by the procedure of Okuma and Uchino (Blood 54:1258-1271 (1979)). In brief, blood is centrifuged at 4° C. at 200×g for 10 minutes to sediment red and white cells. The platelet rich plasma (PRP) supernatant is removed and mixed with one-tenth volume of 77 mM EDTA, pH 7.2 and prostacyclin sodium salt is added to the PRP at a final concentration of 1 nanogram per milliliter(ng/mL). The PRP is centrifuged at 1700×g, 4° C. for 15 minutes. The platelet pellet is resuspended in the HEPES buffer described in the 5-lipoxygenase section above which additionally contained 1 ng/mL prostacyclin and 0.5 mM ethylene glycolbis(B-aminoethyl ether) N,N,N',N'-tetraacetic acid (EGTA) and the suspension is recentrifuged at 1,700×g, 4° C. for 15 minutes. The pellet is resuspended in HEPES buffer containing 0.5 mM EGTA and 1.5 mM CaCl2 at a cell count of 200,000 cells/ul. Platelets (0.2 ml of suspension) are preincubated with test compounds and the ^14 C-arachidonic acid plus the calcium ionophore A23187 stimulant exactly as described for the 5-lipoxygenase assay. The cyclooxygenase product 12-hydroxyheptadecatrienoic acid (HHT) is isolated and quantitated by the HPLC system used for the 5-lipoxygenaseassay. HHT elutes from this system at about eleven minutes. Results are expressed as percent inhibition of HHT production by the test compounds versus the test vehicle alone.

[1] = system: Reversed Passive Arthus Reaction (RPAR) in the pleural cavity; test: Reversed Passive Arthus Reaction (RPAR) in the pleural cavity: cells and fluid; assay type: in vivo, male rats; conditions: dose 25 mpk; for inhibition in vivo at 25 mg/kg: Rattus norvegicus, 4 h; for RPAR-Pleural Cavity Percent Inhibition cells / RPAR-Pleural Cavity Percent Inhibition fluid: Table 3A, formula (IIi)
Procedure: Reversed Passive Arthus Reaction (RPAR) Assay
Groups of 4 male rats were injected in the penile vein with antigen (1 mg BSA in 0.2 mL of saline per rat) and 0.5 hour later injected in the pleural cavity with antibody (1.0 mg antibody protein in the IgG fraction of rabbit anti-BSA in 0.2 mL). […] After 4 hours the animals were killed with CO2, and the pleural cavities were opened and the exudate drained into a graduated conical glass centrifuge tube containing indomethacin (1.8 ug) and nordihydroguaiaretic acid (NDGA) (15 ug) to block ex vivo metabolite synthesis. The volume of the exudate was measured. The cavity was then washed out with saline-EDTA to achieve a final volume of 5.0 mL. The number of cells were determined in a Colulter Counter. The cells were spun-down (1000×g) and the exudate supernatant was added to 4 volumes of 95% ethanol and samples were kept on ice for 30 minutes. After removal of the protein precipitate (2,500×g) the ethanol extract of the exudate was dried under N2 and then stored at -20° C. For radioimmunoassay (RIA) analysis the samples were redissolved in water to a volume of 1 mL per rat. Utilizing internally spiked samples, recovery of TXB2 (tritiated thromboxane B2) and LTE4 (tritiated leukotriene-E4) from exudates was determined to be 84±2% (SEM) and 89±2% (N=4), respectively. Exudate samples were directly assayed in duplicate with the commercial ^3 H-TXB2 RIA kit from New England Nuclear and the ^3 H-LTC4 /D4 /E4 kit from Amersham. The assay was validated using reversed-phase HPLC analysis of LTs in the standard procedure described by M. W. Musch, R. W. Bryant, C. Coscollaela, R. F. Myers and M. I. Siegel, Prostaglandins, Vol. 29, pp 405-430 (1985). Samples of ethanol exudate extract were "spiked" with ^3 H-LTs to follow HPLC purification and recovery.

[2] = read-out: RPAR-Pleural Cavity % Inhibition cells
[3] = read-out: RPAR-Pleural Cavity % Inhibition fluid

With “1,3-dihydro-3-(2-methoxyphenylthio)-1-phenyl-2H-pyrrolo[2,3-b]pyridin-2-one [Compound 23]” the “PMN Assay % Inhibition 5-HETE” value (5-lipoxygenase; 15 μM) was 47%, the “PMN Assay % Inhibition 5-HETE” value (5-lipoxygenase; 50 μM) was 81% and the “% inhibition of HHT production in human platelets” value (cyclooxygenase) was 49%.
For `CC1(F)C(=O)N(c2ccccc2)c2ncccc21` (stereo not shown) [Compound 4, 1,3-dihydro-3-fluoro-3-methyl-1-phenyl-2H-pyrrolo[2,3-b]pyridin-2-one], the inhibition in vivo at 25 mg/kg [1, 2] was 50% and the inhibition in vivo at 25 mg/kg [1, 3] was 35%.
For `CC1(C)C(=S)N(c2ccccc2)c2ncccc21` [Compound 7, 1,3-dihydro-3,3-dimethyl-1-phenyl-2H-pyrrolo[2,3-b]pyridin-2-thione], the inhibition in vivo at 25 mg/kg [1, 2] was 35% and the inhibition in vivo at 25 mg/kg [1, 3] was 33%.
`CSc1ccc(N2C(=O)C(C)(C)c3cccnc32)cc1` [Compound 10, 1,3-dihydro-3,3-dimethyl-1-[4-(methylthio)phenyl]-2H-pyrrolo[2,3-b]pyridin-2-one] was tested, and the inhibition in vivo at 25 mg/kg [1, 2] was 29% and the inhibition in vivo at 25 mg/kg [1, 3] was 37%.
`O=C1C(Sc2ccccc2)c2cccnc2N1c1ccccc1` (stereo not shown) [Compound 11, 1,3-dihydro-1-phenyl-3-(phenylthio)-2H-pyrrolo[2,3-b]pyridin-2-one] gave an inhibition at 15 µM (5-lipoxygenase; 15 μM) of 67% and a % inhibition of HHT production in human platelets at 15 µM (cyclooxygenase; read-out: PMN Assay % Inhibition HHT) of 23%.
`O=C1C(Sc2ccccc2)c2cccnc2N1c1cccc(C(F)(F)F)c1` (stereo not shown) [Compound 12, 1,3-dihydro-3-(phenylthio)-1-(3-trifluoromethylphenyl)-2H-pyrrolo[2,3-b]pyridin-2-one] showed an inhibition at 15 µM (5-lipoxygenase; 15 μM) of 79%.
`CC(C)c1ccc(N2C(=O)C(Sc3ccccc3)c3cccnc32)cc1` (stereo not shown) [Compound 15, 1,3-dihydro-1-(4-(1-methylethyl)-phenyl)-3-(phenylthio)-2H-pyrrolo[2,3-b]pyridin-2-one] showed an inhibition at 50 µM (5-lipoxygenase; 50 μM) of 84%.
Work on `COc1ccc(SC2C(=O)N(c3ccccc3)c3ncccc32)cc1` (stereo not shown) [Compound 21, 1,3-dihydro-3-(4-methoxyphenylthio)-1-phenyl-2H-pyrrolo[2,3-b]pyridin-2-one] yielded an inhibition at 15 µM (5-lipoxygenase; 15 μM) of 61%.
With `CN1C(=O)C([S+]([O-])c2ccccc2)c2cccnc21` (stereo not shown) [Compound 24, 1,3-dihydro-1-methyl-3-(phenylsulfinyl)-2H-pyrrolo[2,3-b]pyridin-2-one] the inhibition at 15 µM (5-lipoxygenase; 15 μM) was 24%.
`O=C1C(SCCO)c2cccnc2N1c1ccccc1` (stereo not shown) [Compound 25, 1,3-dihydro-3-(2-hydroxyethylthio)-1-phenyl-2H-pyrrolo[2,3-b]pyridin-2-one] showed an inhibition at 15 µM (5-lipoxygenase; 15 μM) of 8%.
`O=C1C(Sc2ccccc2)c2cccnc2N1Cc1ccccc1` (stereo not shown) [Compound 27, 1,3-dihydro-1-(phenylmethyl)-3-(phenylthio)-2H-pyrrolo[2,3-b]pyridin-2-one] showed an inhibition at 15 µM (5-lipoxygenase; 15 μM) of 16%.
In the case of `CC(=O)C1(SCCO)C(=O)N(c2ccccc2)c2ncccc21` (stereo not shown) [Compound 29], the inhibition at 15 µM (5-lipoxygenase; 15 μM) is reported as 56%.
Molecule `CC(=O)OCCSC1C(=O)N(c2ccccc2)c2ncccc21` (stereo not shown) [Compound 30, 1,3-dihydro-3-[2-(acetoxy)-ethylthio]-1-phenyl-2H-pyrrolo[2,3-b]pyridin-2-one] has an inhibition at 15 µM (5-lipoxygenase; 15 μM) of 26%.
Work on `CN1C(=O)C(S(=O)(=O)c2ccccc2)c2cccnc21` (stereo not shown) [Compound 31, 1,3-dihydro-1-methyl-3-(phenylsulfonyl)-2H-pyrrolo[2,3-b]pyridin-2-one] yielded an inhibition at 15 µM (5-lipoxygenase; 15 μM) of 10%.
For `CSC1(C)C(=O)N(c2ccccc2)c2ncccc21` (stereo not shown) [Compound 32, 1,3-dihydro-3-methyl-3-(methylthio)-1-phenyl--2H-pyrrolo[2,3-b]pyridin-2-one], the inhibition at 15 µM (5-lipoxygenase; 15 μM) was 21%.
With `O=C(O)Cc1cccnc1Nc1cccc(C(F)(F)F)c1` [Compound 45, 2-(3-trifluoromethylphenylamino)-3-pyridine acetic acid] the “RPAR-Pleural Cavity Percent Inhibition cells” value [1] was 22% and the “RPAR-Pleural Cavity Percent Inhibition fluid” value [1] was 14%.
For `CC(C)(C(=O)O)c1cccnc1Nc1ccc(Cl)cc1` [Compound 46, sodium 2-(4-chlorophenylamino)-α,α-dimethyl-3-pyridine acetate], the “RPAR-Pleural Cavity Percent Inhibition cells” value [1] was 62% and the “RPAR-Pleural Cavity Percent Inhibition fluid” value [1] was 71%.
For `O=C(O)Cc1cccnc1Nc1ccc(Cl)c(Cl)c1` [Compound 47, sodium 2-(3,4-dichlorophenylamino)-3-pyridine acetate], the “RPAR-Pleural Cavity Percent Inhibition cells” value [1] was 16% and the “RPAR-Pleural Cavity Percent Inhibition fluid” value [1] was 19%.
For `O=C(O)Cc1cccnc1Nc1ccc(Cl)cc1` [Compound 48, sodium 2-(4-chlorophenylamino)-3-pyridine acetate], the “RPAR-Pleural Cavity Percent Inhibition cells” value [1] was 0% and the “RPAR-Pleural Cavity Percent Inhibition fluid” value [1] was 0%.
`CC(C(=O)O)c1cccnc1Nc1ccc(Cl)cc1` (stereo not drawn) [Compound 49, sodium 2-(4-chlorophenylamino)-α-methyl-3-pyridine acetate] was tested, and the “RPAR-Pleural Cavity Percent Inhibition cells” value [1] was 67% and the “RPAR-Pleural Cavity Percent Inhibition fluid” value [1] was 54%.
